Assay results reported in ChEMBL document CHEMBL5131481, “Topoisomerase IIα inhibitory and antiproliferative activity of dihydroxylated 2,6-diphenyl-4-fluorophenylpyridines: Design, synthesis, and structure-activity relationships” (Bioorg Med Chem Lett, 2022).
pIC50: −log10 of the molar value.

Assays:
[1] = biological target: DNA topoisomerase 2-alpha (Homo sapiens) (UniProt P11388); test: Inhibition of topoisomerase 2alpha (unknown origin) assessed as relaxation of supercoiled plasmid pBR322 DNA at 100 uM relative to control
[2] = biological target: DNA topoisomerase 2-alpha (Homo sapiens) (UniProt P11388); test: Inhibition of topoisomerase 2alpha (unknown origin) assessed as relaxation of supercoiled plasmid pBR322 DNA at 20 uM relative to control
[3] = tested on: DU-145; test: Antiproliferative activity against human DU-145 cells assessed as inhibition of cell proliferation; format: functional, cell-based
[4] = tested on: HCT-15; test: Antiproliferative activity against human HCT-15 cells assessed as inhibition of cell proliferation; format: functional, cell-based
[5] = tested on: T47D; test: Antiproliferative activity against human T47D cells assessed as inhibition of cell proliferation; format: functional, cell-based
[6] = tested on: HeLa; test: Antiproliferative activity against human HeLa cells assessed as inhibition of cell proliferation; format: functional, cell-based

Chain of DNA topoisomerase 2-alpha (Homo sapiens) (P11388 whole entry): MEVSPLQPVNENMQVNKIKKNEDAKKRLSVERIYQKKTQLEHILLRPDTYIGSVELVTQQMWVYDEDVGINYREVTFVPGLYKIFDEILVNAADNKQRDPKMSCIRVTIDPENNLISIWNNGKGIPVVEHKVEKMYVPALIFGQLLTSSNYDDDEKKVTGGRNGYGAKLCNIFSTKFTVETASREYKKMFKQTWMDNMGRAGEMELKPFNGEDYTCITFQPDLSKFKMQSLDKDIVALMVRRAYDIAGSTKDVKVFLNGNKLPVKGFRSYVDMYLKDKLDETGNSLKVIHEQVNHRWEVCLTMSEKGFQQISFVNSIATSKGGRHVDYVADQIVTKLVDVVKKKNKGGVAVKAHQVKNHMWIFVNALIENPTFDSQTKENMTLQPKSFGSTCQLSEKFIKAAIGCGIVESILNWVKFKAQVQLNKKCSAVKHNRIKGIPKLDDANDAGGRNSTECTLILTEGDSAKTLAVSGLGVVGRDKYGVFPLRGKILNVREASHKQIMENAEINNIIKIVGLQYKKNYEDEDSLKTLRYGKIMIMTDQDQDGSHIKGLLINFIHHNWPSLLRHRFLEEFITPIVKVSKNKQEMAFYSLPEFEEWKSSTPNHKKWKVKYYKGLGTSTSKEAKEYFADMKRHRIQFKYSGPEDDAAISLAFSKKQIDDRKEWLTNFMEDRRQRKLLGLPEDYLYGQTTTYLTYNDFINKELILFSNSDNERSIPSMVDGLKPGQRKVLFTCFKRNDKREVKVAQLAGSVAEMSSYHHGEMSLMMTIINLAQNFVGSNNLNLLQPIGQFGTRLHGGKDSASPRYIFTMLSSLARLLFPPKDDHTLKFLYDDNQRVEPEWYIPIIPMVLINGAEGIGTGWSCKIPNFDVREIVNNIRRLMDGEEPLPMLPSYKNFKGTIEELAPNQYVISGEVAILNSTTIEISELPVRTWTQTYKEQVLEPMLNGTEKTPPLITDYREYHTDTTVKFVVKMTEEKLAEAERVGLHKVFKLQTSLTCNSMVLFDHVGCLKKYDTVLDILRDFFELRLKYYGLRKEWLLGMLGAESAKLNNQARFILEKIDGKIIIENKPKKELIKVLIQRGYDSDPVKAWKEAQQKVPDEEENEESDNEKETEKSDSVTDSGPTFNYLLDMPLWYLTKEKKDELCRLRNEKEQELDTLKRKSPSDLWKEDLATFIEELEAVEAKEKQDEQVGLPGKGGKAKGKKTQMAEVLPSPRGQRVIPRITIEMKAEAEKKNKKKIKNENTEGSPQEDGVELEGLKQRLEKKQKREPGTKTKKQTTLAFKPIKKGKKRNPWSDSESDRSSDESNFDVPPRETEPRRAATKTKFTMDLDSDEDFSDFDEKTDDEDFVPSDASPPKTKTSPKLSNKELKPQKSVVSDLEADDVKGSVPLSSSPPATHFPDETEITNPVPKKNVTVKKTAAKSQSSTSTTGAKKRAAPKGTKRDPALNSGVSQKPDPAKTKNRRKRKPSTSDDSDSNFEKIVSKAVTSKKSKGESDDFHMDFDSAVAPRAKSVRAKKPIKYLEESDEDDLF

| SMILES | inhibition [1] [%] | inhibition [2] [%] | pIC50 [3] | pIC50 [4] | pIC50 [5] | pIC50 [6] |
| --- | --- | --- | --- | --- | --- | --- |
| Oc1cccc(-c2cc(-c3ccccc3OC(F)(F)F)cc(-c3cccc(O)c3)n2)c1 | 33.4 | 6.7 | 5.27 | 5.37 | 5.10 | 4.78 |
| Oc1ccc(-c2cc(-c3ccccc3C(F)(F)F)cc(-c3cccc(O)c3)n2)cc1 | 61.9 | 2.2 | 5.56 | 5.24 | 5.49 | 4.76 |
| Oc1ccc(-c2cc(-c3ccccc3F)cc(-c3cccc(O)c3)n2)cc1 | 76.6 | 42.1 | 5.50 | 5.25 | 5.20 | 4.85 |
| Oc1ccc(-c2cc(-c3ccc(F)cc3)cc(-c3ccc(O)cc3)n2)cc1 | 97.1 | 42.5 | 5.22 | 5.30 | 5.28 | 5.06 |
| Oc1ccc(-c2cc(-c3ccc(C(F)(F)F)cc3)cc(-c3cccc(O)c3)n2)cc1 | 44.1 | 4.1 | < 4.30 | 5.19 | 5.54 | 4.76 |
| COc1cc([C@@H]2c3cc4c(cc3[C@@H](O[C@@H]3O[C@@H]5CO[C@@H](C)O[C@H]5[C@H](O)[C@H]3O)[C@H]3COC(=O)[C@H]23)OCO4)cc(OC)c1O [ETOPOSIDE] |  | 21.2 | 5.13 |  | 5.24 | 5.15 |
| Oc1ccc(-c2cc(-c3ccc(OC(F)(F)F)cc3)cc(-c3ccc(O)cc3)n2)cc1 | 59 | 6.4 | 5.27 | 4.86 | 5.29 | 4.77 |
| Oc1ccc(-c2cc(-c3ccccc3OC(F)(F)F)cc(-c3cccc(O)c3)n2)cc1 | 45.2 | 4.4 | 5.11 | 5.64 | 5.14 | 5.24 |
| Oc1ccc(-c2cc(-c3ccc(F)cc3)cc(-c3cccc(O)c3)n2)cc1 | 43.7 | 30.4 | 4.82 | 5.30 | 5.30 | 5.09 |
| Oc1cccc(-c2cc(-c3ccccc3F)cc(-c3cccc(O)c3)n2)c1 | 31.1 | 10.8 | 4.95 | 5.28 | 5.36 | 4.79 |
| Oc1ccc(-c2cc(-c3ccccc3OC(F)(F)F)cc(-c3ccc(O)cc3)n2)cc1 | 42.2 | 4.3 | 4.80 | 5.11 | 5.01 | 4.35 |
| Oc1ccc(-c2cc(-c3cccc(F)c3)cc(-c3cccc(O)c3)n2)cc1 | 73.9 | 36.1 | 5.57 | 5.51 | 5.45 | 4.85 |
| Oc1ccc(-c2cc(-c3ccccc3OC(F)(F)F)cc(-c3ccccc3O)n2)cc1 | 0 |  | 5.38 | 5.01 | 5.69 | 5.22 |
| Oc1cccc(-c2cc(-c3ccc(C(F)(F)F)cc3)cc(-c3cccc(O)c3)n2)c1 | 24 |  | 4.48 | < 4.30 | 5.63 | < 4.30 |
| Oc1ccc(-c2cc(-c3cccc(C(F)(F)F)c3)cc(-c3ccccc3O)n2)cc1 | 0.1 |  | < 4.30 | < 4.30 | < 4.30 | < 4.30 |
| Oc1cccc(-c2cc(-c3cccc(C(F)(F)F)c3)cc(-c3cccc(O)c3)n2)c1 | 25.2 |  | < 4.30 | 4.87 | 5.30 | 4.90 |
| Oc1ccc(-c2cc(-c3ccc(C(F)(F)F)cc3)cc(-c3ccc(O)cc3)n2)cc1 | 0.2 |  | < 4.30 | < 4.30 | < 4.30 | < 4.30 |
| Oc1cccc(-c2cc(-c3ccc(F)cc3)cc(-c3cccc(O)c3)n2)c1 | 36.6 | 4.9 | 5.15 | 5.20 | 5.16 | 5.89 |
| Oc1ccc(-c2cc(-c3cccc(OC(F)(F)F)c3)cc(-c3cccc(O)c3)n2)cc1 | 43.4 | 7.4 | 5.25 | 5.76 | 5.30 | 4.85 |
| Oc1ccc(-c2cc(-c3ccccc3F)cc(-c3ccc(O)cc3)n2)cc1 | 0 |  | 5.11 | 5.09 | 4.82 | < 4.30 |
